According to US7432260B2, “Pyrimidine compounds” (Cyclacel Limted, priority 2002, dated 2008):
Read-outs that look alike come from different tables or passages of the source.

Tests used:
[1] = biological target: CDK2/cyclin A (Homo sapiens, UniProt P24941); assay: Kinase assay CDK2/cyclin A; format: biochemical
How it was run: (§1)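 Recombinant kinase (2-4 μg) with polypeptide substrate in pH 7.4 MOPS/β-glycerophosphate buffer; started with 15 mM MgCl2 + 100 μM ATP plus [γ-32P]-ATP, incubated at 30° C. Stopped on ice, filtered, washed in orthophosphoric acid; incorporated 32P counted by scintillation.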

[2] = biological target: PLK-1 (Homo sapiens, UniProt P53350); assay: Kinase assay PLK-1; format: biochemical
PLK-1, sequence (P53350 whole entry): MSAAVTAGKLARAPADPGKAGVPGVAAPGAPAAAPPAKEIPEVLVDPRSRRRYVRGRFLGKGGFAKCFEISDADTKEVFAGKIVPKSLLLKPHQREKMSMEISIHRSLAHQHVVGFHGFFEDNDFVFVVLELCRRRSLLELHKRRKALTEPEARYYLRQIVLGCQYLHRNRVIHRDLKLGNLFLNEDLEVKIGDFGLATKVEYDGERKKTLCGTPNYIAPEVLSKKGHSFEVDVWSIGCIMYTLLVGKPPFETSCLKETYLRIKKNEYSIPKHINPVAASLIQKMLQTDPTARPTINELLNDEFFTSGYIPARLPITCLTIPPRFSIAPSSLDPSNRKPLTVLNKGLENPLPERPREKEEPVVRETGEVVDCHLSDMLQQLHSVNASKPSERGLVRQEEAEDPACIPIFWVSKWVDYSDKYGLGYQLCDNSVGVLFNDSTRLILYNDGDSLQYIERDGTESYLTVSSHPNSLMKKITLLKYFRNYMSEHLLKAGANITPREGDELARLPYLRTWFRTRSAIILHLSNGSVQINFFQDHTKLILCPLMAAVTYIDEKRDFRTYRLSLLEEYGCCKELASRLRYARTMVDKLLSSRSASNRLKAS
How it was run: as §1

[3] = system: U2OS; assay: 72-h MTT cytotoxicity assay U2OS; format: cell-based; conditions: Homo sapiens, Table 5, Bone osteosarcoma
Procedure: (§2) MTT cytotoxicity assay. […] Standard 72-h MTT (thiazolyl blue; 3-[4,5-dimethylthiazol-2-yl]-2,5-diphenyltetrazolium bromide) assays were performed (Haselsberger, K.; Peterson, D. C.; Thomas, D. G.; Darling, J. L. Anti Cancer Drugs 1996, 7, 331-8; Loveland, B. E.; Johns, T. G.; Mackay, I. R.; Vaillant, F.; Wang, Z. X.; Hertzog, P. J. Biochemistry International 1992, 27, 501-10). In short: cells were seeded into 96-well plates according to doubling time and incubated overnight at 37° C. Test compounds were made up in DMSO and a 1/3 dilution series prepared in 100 μL cell media, added to cells (in triplicates) and incubated for 72 ho at 37° C. MTT was made up as a stock of 5 mg/mL in cell media and filter-sterilised. Media was removed from cells followed by a wash with 200 μL PBS.
(§3) MTT solution was then added at 20 μL per well and incubated in the dark at 37° C. for 4 h. MTT solution was removed and cells again washed with 200 μL PBS. MTT dye was solubilised with 200 μL per well of DMSO with agitation.

[4] = system: IMR-90; assay: 72-h MTT cytotoxicity assay IMR-90; format: cell-based; conditions: Homo sapiens, IMR-90, 72 h; Table 5; Foetal lung fibroblast (non-transformed)
Procedure: as §2, §3

[5] = system: DU-145; assay: 72-h MTT cytotoxicity assay DU-145; format: cell-based; conditions: Homo sapiens, DU-145, 72 h; Table 5; Prostate
Procedure: as §2, §3

[6] = system: K562; assay: 72-h MTT cytotoxicity assay K562; format: cell-based; conditions: Homo sapiens, K562, 72 h; Table 5; Chronic myelogenous leukaemia
Procedure: as §2, §3

[7] = system: SK-N-MC; assay: 72-h MTT cytotoxicity assay SK-N-MC; format: cell-based; conditions: Homo sapiens, Table 5, Neuroblastoma
Procedure: as §2, §3

[8] = system: AGS; assay: 72-h MTT cytotoxicity assay AGS; format: cell-based; conditions: Homo sapiens, Table 5, Gastric adenocarcinoma
Procedure: as §2, §3

[9] = system: Hs27; assay: 72-h MTT cytotoxicity assay Hs27; format: cell-based; conditions: Homo sapiens, HS27, 72 h; Table 5; Foreskin fibroblast (non-transformed)
Procedure: as §2, §3

[10] = biological target: ERK2 (extracellular-signal-regulated kinase 2) (Homo sapiens, UniProt P28482); assay: Kinase assay ERK2; format: biochemical; conditions: Table 3 selectivity panel; read-out: Kinase specificity IC50 ERK2
ERK2 (extracellular-signal-regulated kinase 2), sequence (P28482 whole entry, species assumed): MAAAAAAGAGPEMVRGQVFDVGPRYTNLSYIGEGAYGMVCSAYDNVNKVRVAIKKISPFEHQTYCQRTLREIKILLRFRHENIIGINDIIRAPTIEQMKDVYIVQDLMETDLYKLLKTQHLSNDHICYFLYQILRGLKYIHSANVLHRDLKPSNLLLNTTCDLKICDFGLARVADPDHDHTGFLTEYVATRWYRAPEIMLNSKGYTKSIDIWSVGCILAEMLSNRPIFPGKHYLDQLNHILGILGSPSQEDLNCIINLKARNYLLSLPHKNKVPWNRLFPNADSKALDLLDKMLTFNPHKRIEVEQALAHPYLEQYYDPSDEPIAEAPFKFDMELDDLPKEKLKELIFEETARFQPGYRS
Procedure: (§4) Kinase assays. […] This was achieved by measurement of incorporation of radioactive phosphate from ATP into appropriate polypeptide substrates. Recombinant protein kinases and kinase complexes were produced or obtained commercially. Assays were performed using 96-well plates and appropriate assay buffers (typically 25 mM β-glycerophosphate, 20 mM MOPS, 5 mM EGTA, 1 mM DTT, 1 mM […], pH 7.4), into which were added 2-4 μg of active enzyme with appropriate substrates. The reactions were initiated by addition of Mg/ATP mix (15 mM MgCl2+100 μM ATP with 30-50 kBq per well of [γ-^32P]-ATP) and mixtures incubated as required at 30° C. Reactions were stopped on ice, followed by filtration through p81 filterplates or GF/C filterplates (Whatman Polyfiltronics, Kent, UK). After washing 3 times with 75 mM aq orthophosphoric acid, plates were dried, scintillant added and incorporated radioactivity measured in a scintillation counter (TopCount, Packard Instruments, Pangbourne, Berks, UK). Compounds for kinase assay were made-up as 10 mM stocks in DMSO and diluted into 10% DMSO inrassay buffer.

[11] = system: Lovo; assay: 72-h MTT cytotoxicity assay Lovo; format: cell-based; conditions: Homo sapiens, Table 5, Colon
Procedure: as §2, §3

[12] = system: HCT-116; assay: 72-h MTT cytotoxicity assay HCT-116; format: cell-based; conditions: Homo sapiens, HCT-116, 72 h; Table 5; Colon
Procedure: as §2, §3

[13] = system: SJSA-1; assay: 72-h MTT cytotoxicity assay SJSA-1; format: cell-based; conditions: Homo sapiens, SJSA-1, 72 h; Table 5; Osteogenic sarcoma
Procedure: as §2, §3

[14] = biological target: Abl (Ableson tyrosine kinase) (Homo sapiens, UniProt P00519); assay: Kinase assay Abl; format: biochemical; conditions: Table 3 selectivity panel; read-out: Kinase specificity IC50 Abl
Abl (Ableson tyrosine kinase), sequence (P00519 whole entry, species assumed): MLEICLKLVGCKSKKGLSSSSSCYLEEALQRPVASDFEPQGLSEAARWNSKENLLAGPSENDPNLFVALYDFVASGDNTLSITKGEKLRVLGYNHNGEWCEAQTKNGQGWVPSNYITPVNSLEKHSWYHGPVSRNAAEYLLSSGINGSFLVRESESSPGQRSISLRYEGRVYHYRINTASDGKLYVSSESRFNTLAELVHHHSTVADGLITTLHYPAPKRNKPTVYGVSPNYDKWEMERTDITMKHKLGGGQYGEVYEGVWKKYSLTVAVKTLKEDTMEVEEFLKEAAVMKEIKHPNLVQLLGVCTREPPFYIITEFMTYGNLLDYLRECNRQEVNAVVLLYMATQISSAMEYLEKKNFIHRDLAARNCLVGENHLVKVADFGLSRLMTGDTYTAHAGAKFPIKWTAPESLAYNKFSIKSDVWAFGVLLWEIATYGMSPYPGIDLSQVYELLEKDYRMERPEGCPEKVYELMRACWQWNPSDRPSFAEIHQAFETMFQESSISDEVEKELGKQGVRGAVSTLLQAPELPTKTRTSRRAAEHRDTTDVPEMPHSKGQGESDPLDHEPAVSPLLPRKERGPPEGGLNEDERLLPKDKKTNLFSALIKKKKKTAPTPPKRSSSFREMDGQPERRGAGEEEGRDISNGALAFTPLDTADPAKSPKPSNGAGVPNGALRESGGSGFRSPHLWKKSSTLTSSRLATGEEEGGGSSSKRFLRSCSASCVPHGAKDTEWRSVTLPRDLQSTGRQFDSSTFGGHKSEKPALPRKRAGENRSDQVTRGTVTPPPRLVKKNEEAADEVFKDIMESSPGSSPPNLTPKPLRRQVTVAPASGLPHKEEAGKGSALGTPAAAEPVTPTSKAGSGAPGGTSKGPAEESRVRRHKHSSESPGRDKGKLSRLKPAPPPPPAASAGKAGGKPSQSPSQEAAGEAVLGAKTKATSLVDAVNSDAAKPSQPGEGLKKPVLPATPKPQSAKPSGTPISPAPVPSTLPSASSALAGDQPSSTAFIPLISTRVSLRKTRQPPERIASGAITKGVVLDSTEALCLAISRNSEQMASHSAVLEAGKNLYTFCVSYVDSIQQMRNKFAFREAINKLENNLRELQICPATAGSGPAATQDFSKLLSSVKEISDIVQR
Procedure: as §4

[15] = system: H1299; assay: 72-h MTT cytotoxicity assay H1299; format: cell-based; conditions: Homo sapiens, NCI-H1299, 72 h; Table 5; Lung
Procedure: as §2, §3

[16] = system: Hacat; assay: 72-h MTT cytotoxicity assay Hacat; format: cell-based; conditions: Homo sapiens, Table 5, Skin keratinocytes
Procedure: as §2, §3

[17] = system: Messa; assay: 72-h MTT cytotoxicity assay Messa; format: cell-based; conditions: Homo sapiens, MES-SA, Table 5, Uterine
Procedure: as §2, §3

[18] = system: SKUT-1; assay: 72-h MTT cytotoxicity assay SKUT-1; format: cell-based; conditions: Homo sapiens, SK-UT-1, 72 h; Table 5; Leiomyosarcoma
Procedure: as §2, §3

[19] = system: WI38; assay: 72-h MTT cytotoxicity assay WI38; format: cell-based; conditions: Homo sapiens, WI-38, 72 h; Table 5; Foetal lung fibroblast (non-transformed)
Procedure: as §2, §3

[20] = biological target: SAPK2a (stress-activated protein kinase 2a) (Homo sapiens, UniProt Q16539); assay: Kinase assay SAPK2a; format: biochemical; conditions: Table 3 selectivity panel; read-out: Kinase specificity IC50 SAPK2a
SAPK2a (stress-activated protein kinase 2a), sequence (Q16539 whole entry, species assumed): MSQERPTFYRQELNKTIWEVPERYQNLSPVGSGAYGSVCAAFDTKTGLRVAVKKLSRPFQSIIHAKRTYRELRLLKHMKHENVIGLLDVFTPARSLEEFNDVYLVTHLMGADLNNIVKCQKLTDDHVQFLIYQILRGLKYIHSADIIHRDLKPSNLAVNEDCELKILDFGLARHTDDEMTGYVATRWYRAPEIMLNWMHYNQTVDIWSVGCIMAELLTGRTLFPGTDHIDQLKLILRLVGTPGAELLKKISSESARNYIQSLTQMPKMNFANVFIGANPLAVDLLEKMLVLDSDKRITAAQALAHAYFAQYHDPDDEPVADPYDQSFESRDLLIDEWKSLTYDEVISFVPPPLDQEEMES
Procedure: as §4

[21] = system: Messa-Dx5; assay: 72-h MTT cytotoxicity assay Messa-Dx5; format: cell-based; conditions: Homo sapiens, MES-SA/Dx5, 72 h; Table 5; Uterine
Procedure: as §2, §3

[22] = system: SKUT-1B; assay: 72-h MTT cytotoxicity assay SKUT-1B; format: cell-based; conditions: Homo sapiens, Skut1B, Table 5, Leiomyosarcoma
Procedure: as §2, §3

[23] = system: MCF-7; assay: 72-h MTT cytotoxicity assay MCF-7; format: cell-based; conditions: Homo sapiens, MCF7, 72 h; Table 5; Breast
Procedure: as §2, §3

[24] = biological target: Akt/PKB (protein kinase B) (Homo sapiens, UniProt P31749); assay: Kinase assay Akt/PKB; format: biochemical; conditions: Table 3 selectivity panel; read-out: Kinase specificity IC50 Akt/PKB
Akt/PKB (protein kinase B), sequence (P31749 whole entry): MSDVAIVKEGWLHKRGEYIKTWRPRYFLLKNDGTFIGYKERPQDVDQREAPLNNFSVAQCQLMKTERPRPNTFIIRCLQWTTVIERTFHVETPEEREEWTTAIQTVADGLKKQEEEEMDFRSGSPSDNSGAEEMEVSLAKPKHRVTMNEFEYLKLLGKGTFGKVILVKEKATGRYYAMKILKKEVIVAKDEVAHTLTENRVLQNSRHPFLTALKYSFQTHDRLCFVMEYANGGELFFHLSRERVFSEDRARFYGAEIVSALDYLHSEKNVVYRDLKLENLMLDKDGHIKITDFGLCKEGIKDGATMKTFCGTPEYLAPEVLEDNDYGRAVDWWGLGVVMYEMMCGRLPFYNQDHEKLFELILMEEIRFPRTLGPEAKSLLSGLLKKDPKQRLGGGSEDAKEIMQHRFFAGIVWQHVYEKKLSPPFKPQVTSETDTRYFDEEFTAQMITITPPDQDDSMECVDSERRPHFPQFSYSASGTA
Procedure: as §4

[25] = biological target: PKCα (protein kinase C α) (Homo sapiens, UniProt P17252); assay: Kinase assay PKCα; format: biochemical; conditions: Table 3 selectivity panel; read-out: Kinase specificity IC50 PKCα
Procedure: as §4

[26] = Table 2, read-out: Kinase Inhibition IC50 CDK2 cyclin A
[27] = Table 2, read-out: Kinase Inhibition IC50 PLK-1
[28] = Table 3 selectivity panel, read-out: Kinase specificity IC50 CDK2/A
[29] = Table 3 selectivity panel, read-out: Kinase specificity IC50 PLK1

| SMILES | IC50 [1, 26] | IC50 [2, 27] | IC50 [3] | IC50 [4] | IC50 [5] | IC50 [6] | IC50 [7] | IC50 [8] | IC50 [9] | IC50 [10] | IC50 [11] | IC50 [12] | IC50 [13] | IC50 [14] | IC50 [15] | IC50 [16] | IC50 [2, 29] | IC50 [17] | IC50 [20] | IC50 [25] | further results |
| --- | --- | --- | --- | --- | --- | --- | --- | --- | --- | --- | --- | --- | --- | --- | --- | --- | --- | --- | --- | --- | --- |
| Cc1nc(C)c(-c2ccnc(Nc3ccc(NC(=O)CN4CCCC4)cc3)n2)s1 [Compound 53, N-{4-[4-(2,4-Dimethyl-thiazol-5-yl)-pyrimidin-2-ylamino]-phenyl}-2-pyrrolidin-1-yl-acetamide] | 5300 nM | – | – | – | – | – | – | – | – | – | – | – | – | – | – | – | – | – | – | – | – |
| CCNc1nc(C)c(-c2ccnc(Nc3ccc(N4CCOCC4)cc3)n2)s1 [Compound 4, [4-(2-Ethylamino-4-methyl-thiazol-5-yl)-pyrimidin-2-yl]-(4-morpholin-4-yl-phenyl)-amine] | – | > 100000 nM | – | – | – | – | – | – | – | – | – | – | – | – | – | – | – | – | – | – | – |
| CC[C@@H](N)C(=O)Nc1nc(C)c(-c2ccnc(Nc3cccc([N+](=O)[O-])c3)n2)s1 [Compound 16, (2R)-2-Amino-N-{4-methyl-5-[2-(3-nitro-phenylamino)-pyrimidin-4-yl]-thiazol-2-yl}-butyramide] | 650 nM | > 150000 nM | 480 nM | 1700 nM | 600 nM | 2500 nM | 400 nM | 300 nM | > 5000 nM | > 100000 nM | 300 nM | 300 nM | 1000 nM | 1500 nM | 600 nM | 1100 nM | > 100000 nM | 400 nM | > 100000 nM | 53000 nM | IC50 [1, 28]: 650 nM; IC50 [18]: 200 nM; IC50 [19]: 1400 nM; IC50 [21]: 100 nM; IC50 [22]: 100 nM; IC50 [23]: 390 nM; IC50 [24]: > 100000 nM |
| CNc1nc(C)c(-c2ccnc(Nc3ccc(N4CCOCC4)cc3)n2)s1 [Compound 3, [4-(2-N-Methylamino-4-methyl-thiazol-5-yl)-pyrimidin-2-yl]-(4-morpholinophenyl)-amine] | – | > 150000 nM | – | – | – | – | – | – | – | > 100000 nM | – | – | – | 50000 nM | – | – | > 100000 nM | – | > 100000 nM | > 100000 nM | IC50 [24]: > 100000 nM |
| Cc1nc(NC(=O)[C@H](N)[C@@H](C)O)sc1-c1ccnc(Nc2cccc([N+](=O)[O-])c2)n1 [Compound 15, (2R,3R)-2-Amino-3-hydroxy-N-{4-methyl-5-[2-(3-nitro-phenylamino)-pyrimidin-4-yl]-thiazol-2-yl}-butyramide] | 850 nM | > 150000 nM | 1020 nM | 2500 nM | 1300 nM | 4600 nM | 500 nM | 1100 nM | 1700 nM | > 100000 nM | 700 nM | 600 nM | 1900 nM | 760 nM | 1300 nM | 1500 nM | > 100000 nM | 900 nM | > 100000 nM | > 100000 nM | IC50 [1, 28]: 400 nM; IC50 [18]: 900 nM; IC50 [19]: > 5000 nM; IC50 [21]: 400 nM; IC50 [22]: 200 nM; IC50 [23]: 900 nM; IC50 [24]: > 100000 nM |
| CNc1nc(C)c(-c2ccnc(Nc3ccc(N4CCN(Cc5ccccc5)CC4)cc3)n2)s1 [Compound 11, [4-(4-Benzyl-piperazin-1-yl)-phenyl]-[4-(4-methyl-2-methylamino-thiazol-5-yl)-pyrimidin-2-yl]-amine] | 2200 nM | 19000 nM | 2300 nM | 31000 nM | 1000 nM | 2100 nM | 600 nM | 1300 nM | 19000 nM | > 100000 nM | 2000 nM | 600 nM | 4300 nM | 72000 nM | 1100 nM | 1000 nM | 19000 nM | 100 nM | > 100000 nM | > 100000 nM | IC50 [1, 28]: 2200 nM; IC50 [18]: 800 nM; IC50 [19]: 22000 nM; IC50 [21]: 200 nM; IC50 [22]: 300 nM; IC50 [23]: 1900 nM; IC50 [24]: > 100000 nM |
| Cc1nc(N)sc1-c1ccnc(Nc2ccc(N3CCOCC3)cc2)n1 [Compound 1, [4-(2-Amino-4-methyl-thiazol-5-yl)-pyrimidin-2-yl]-(4-morpholin-4-yl-phenyl)-amine] | – | – | 2100 nM | > 5000 nM | 1500 nM | 3800 nM | 300 nM | 1100 nM | > 5000 nM | – | 900 nM | 900 nM | > 5000 nM | – | 900 nM | 1100 nM | – | 200 nM | > 100000 nM | > 100000 nM | IC50 [18]: 900 nM; IC50 [19]: > 5000 nM; IC50 [21]: 200 nM; IC50 [23]: > 5000 nM |
